# Laboratory results published in BindingDB's records for doi:10.7270/Q29S1T6B (n/a, 1997).
# Biological target: T1, Type-1 angiotensin II receptor B (Rattus norvegicus, UniProt P29089)
# T1 sequence (P29089 whole entry): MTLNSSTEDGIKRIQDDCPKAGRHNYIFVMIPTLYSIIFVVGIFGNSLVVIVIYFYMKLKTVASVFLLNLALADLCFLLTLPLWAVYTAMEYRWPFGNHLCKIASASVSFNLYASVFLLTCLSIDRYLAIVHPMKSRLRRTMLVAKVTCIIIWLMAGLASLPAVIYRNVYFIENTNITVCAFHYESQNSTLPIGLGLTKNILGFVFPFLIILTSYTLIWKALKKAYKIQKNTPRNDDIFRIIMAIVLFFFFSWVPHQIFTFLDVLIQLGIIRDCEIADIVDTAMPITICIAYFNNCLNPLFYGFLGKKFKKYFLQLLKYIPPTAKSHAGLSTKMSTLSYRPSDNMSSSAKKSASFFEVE
# Assay: Inhibition of binding of [125I]All at the angiotensin II type 1 receptor (AT1 receptor) in rat liver membranes
row,Ki [nM],SMILES
1,3.4,"CCc1nn(Cc2ccc(-c3ccccc3-c3nnn[nH]3)cc2)c(=NC(=O)c2ccccc2Cl)s1 [2-Chloro-N-[5-ethyl-3-[2'-(1H-tetrazol-5-yl)-biphenyl-4-ylmethyl]-3H-[1,3,4]thiadiazol-(2Z)-ylidene]-benzamide]"
2,36,"CCc1nn(Cc2ccc(-c3ccccc3-c3nnn[nH]3)cc2)c(=NC(=O)c2ccccc2)s1 [N-[5-Ethyl-3-[2'-(1H-tetrazol-5-yl)-biphenyl-4-ylmethyl]-3H-[1,3,4]thiadiazol-(2Z)-ylidene]-benzamide]"
3,0.619,"CCc1nn(Cc2ccc(-c3ccccc3-c3nnn[nH]3)cc2)c(=NC(=O)c2ccccc2C(=O)O)s1 [N-[5-Ethyl-3-[2'-(1H-tetrazol-5-yl)-biphenyl-4-ylmethyl]-3H-[1,3,4]thiadiazol-(2Z)-ylidene]-phthalamic acid]"
